The SangsterLogP compilation

Assay: method code SF-HPLC, from DOI: 10.1002/jps.2600740210, PMID: 3989684
Details: pH 7.7

| SMILES | logD |
| --- | --- |
| NS(=O)(=O)c1nc2ccc([N+](=O)[O-])cc2s1 | 0.9 |
| NS(=O)(=O)c1nc2c(Cl)cc(Cl)cc2s1 | 2.3 |
| NS(=O)(=O)c1nc2ccc(OCc3ccccc3)cc2s1 | 3.06 |
| CC(=O)Nc1ccc2nc(S(N)(=O)=O)sc2c1 | 0.68 |
| NS(=O)(=O)c1nc2ccccc2s1 | 1.19 |

Other lines, results leading:

| logD | SMILES |
| --- | --- |
| 1.91 | CCOc1ccc2nc(S(N)(=O)=O)sc2c1 |
| 0.38 | Nc1ccc2nc(S(N)(=O)=O)sc2c1 |
| 0.38 | NS(=O)(=O)c1nc2ccc(OCCO)cc2s1 |
| 0.92 | NS(=O)(=O)c1nc2ccc(O)cc2s1 |
| 1.86 | NS(=O)(=O)c1nc2ccc(Cl)cc2s1 |
